Experimental data as given in PubChem BioAssay (NCI).
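Each compound was tested at five concentrations against cells in 96-well plates for 48 hours. GI50 = concentration required for 50% inhibition of growth. The concentration for full growth arrest is given as TGI.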

Columns and labels:
Experiment in all cases: inhibition of tumour cell growth, NCI panel, 48 h
IGROV1 ovarian = test system: IGROV1 ovarian
SF-539 CNS = test system: SF-539 CNS
HL-60(TB) leukemia = test system: HL-60(TB) leukemia
UACC-62 melanoma = test system: UACC-62 melanoma
HOP-62 NSCLC = test system: HOP-62 NSCLC
EKVX NSCLC = test system: EKVX NSCLC
NCI-H226 lung = test system: NCI-H226 lung
SF-268 CNS = test system: SF-268 CNS
BT-549 breast = test system: BT-549 breast
CAKI-1 renal = test system: CAKI-1 renal

Row | SMILES | TGI (IGROV1 ovarian) [µM] | TGI (SF-539 CNS) [µM] | TGI (HL-60(TB) leukemia) [µM] | TGI (UACC-62 melanoma) [µM] | TGI (HOP-62 NSCLC) [µM] | TGI (EKVX NSCLC) [µM] | TGI (NCI-H226 lung) [µM] | TGI (SF-268 CNS) [µM] | GI50 (IGROV1 ovarian) [µM] | GI50 (NCI-H226 lung) [µM] | GI50 (BT-549 breast) [µM] | TGI (BT-549 breast) [µM] | GI50 (SF-539 CNS) [µM] | GI50 (SF-268 CNS) [µM] | GI50 (UACC-62 melanoma) [µM] | GI50 (HOP-62 NSCLC) [µM] | GI50 (CAKI-1 renal) [µM] | TGI (CAKI-1 renal) [µM] | GI50 (EKVX NSCLC) [µM] | GI50 (HL-60(TB) leukemia) [µM]
1 | Cc1ccc(S(=O)(=O)N/N=C(/c2nc3ccc([N+](=O)[O-])cc3[nH]c2=O)C(O)c2ccc(C(O)/C(=N\NS(=O)(=O)c3ccc(C)cc3)c3nc4ccc([N+](=O)[O-])cc4[nH]c3=O)cc2)cc1 (configuration not stated) | > 100 | > 100 | 98.3 | > 100 | > 100 | > 100 | – | – | – | – | – | – | – | – | – | – | – | – | – | –
2 | Nc1ncnc2c1ncn2C1CC(OCc2ccccc2[N+](=O)[O-])C(CO)O1 (configuration not stated) | > 50 | > 50 | 31.6 | – | > 50 | > 50 | 36.3 | > 50 | – | – | – | – | – | – | – | – | – | – | – | –
3 | N=c1c2c(=N)n3c(nc2nc2n1-c1ccccc1Sc1ccccc1-2)sc1cc(Cl)ccc13 | 35.4 | 30.6 | – | 9.44 | 24.1 | 7.46 | 16.8 | > 100 | 3.51 | 1.73 | 3.97 | > 100 | 5.07 | 3.42 | 1.16 | 5.87 | 1.94 | > 100 | 1.24 | –
4 | O=C(COc1cccc(/C=C2\CSc3ccccc3C2=O)c1)Nc1nccs1 | – | 13.3 | – | 3.12 | 23.2 | 20.5 | 30.6 | 3.35 | – | 13.1 | – | – | 2.4 | 1.76 | 1.48 | 11 | 1.72 | 6.33 | 7.21 | –
5 | c1ccc2c(c1)cc1n2CC2CN=NC12 (configuration not stated) | > 100 | > 100 | > 100 | > 100 | > 100 | > 100 | > 100 | > 100 | – | – | – | – | – | – | – | – | – | > 100 | – | –
6 | O=C1c2ccccc2C(=O)c2c(OCCOCCO)cccc21 | > 100 | > 100 | > 100 | 19.1 | > 100 | > 100 | – | > 100 | – | – | – | > 100 | – | – | – | – | – | 74.2 | – | –
7 | COC(=O)c1ccc(NC(=O)Oc2ccc(N(CCCl)CCCl)cc2)cc1 | 59.8 | 18.9 | 11.6 | 23.5 | 24.8 | – | 50.6 | 18.5 | 11.8 | 12.1 | 10.2 | > 100 | 2.92 | 1.94 | 3.36 | 3.99 | 0.434 | 7.36 | – | 0.867
8 | Cc1cc(Cl)nc(N(CCCNc2ccnc3cc(Cl)ccc23)Cc2ccco2)n1 | 8.26 | 6.38 | 5.14 | 6.8 | 5.65 | 7.73 | 6.91 | 31.1 | 1.92 | 1.3 | 2.16 | 6.47 | 2.33 | 3.83 | 2.32 | 1.59 | – | – | 2.18 | 2.05
9 | CC1=C(C(=O)Nc2cc(F)c(F)cc2F)C(c2ccc([N+](=O)[O-])cc2)C(C(=O)Nc2cc(F)c(F)cc2F)=C(C)N1 | > 100 | > 100 | 35.7 | – | > 100 | > 100 | > 100 | > 100 | – | – | – | – | – | – | – | – | – | > 100 | – | –
10 | Cn1nc(-c2ccccc2)c2c(/C=C/c3ccccc3)onc2c1=O | > 100 | > 100 | > 100 | > 100 | > 100 | > 100 | > 100 | > 100 | – | – | – | – | – | – | – | – | – | > 100 | – | –
11 | CC(=O)C1=C(O)C2C3c4c[nH]c5cccc(c45)CC3C(C)(C)N2C1=O (configuration not stated) | > 100 | 44.4 | 9.85 | > 100 | 22.4 | > 100 | 71.4 | > 100 | – | – | – | – | – | – | – | – | – | > 100 | – | –
12 | O=[N+]([O-])c1cccc(C2CC(c3ccccc3)=Nc3ccccc3S2)c1 (configuration not stated) | 35.6 | 31.3 | 84.7 | 44.1 | > 100 | – | > 100 | 26.9 | 16.1 | 72.4 | 13.2 | 26.7 | 17.2 | 13.1 | 12.1 | 37.8 | 21.8 | > 100 | – | 26.5
13 | O=C(CN1C(=O)S/C(=C\C(Cl)=C\c2ccccc2)C1=O)NC1C=CS(=O)(=O)C1 (configuration not stated) | 4.31 | 4.76 | – | 3.16 | 11.1 | 6.06 | – | 8.55 | 1.31 | – | 1.75 | 4.78 | 2 | 2.44 | 1.13 | 2.97 | 1.65 | 4.23 | 2.19 | –
14 | CCOc1ccc(NC(=O)CC2C(=O)Nc3ccccc3S2(=O)=O)cc1 (configuration not stated) | > 100 | > 100 | > 100 | – | > 100 | > 100 | 90.3 | > 100 | – | – | – | – | – | – | – | – | – | – | – | –
15 | CC(=O)OC1COC(n2c(=S)n(-c3ccccc3)c(=O)c3ccccc32)C(OC(C)=O)C1OC(C)=O (configuration not stated) | > 100 | > 100 | > 100 | > 100 | > 100 | > 100 | > 100 | > 100 | – | – | – | – | – | – | – | – | – | > 100 | – | –
16 | C=CCc1cc(OC)c2c(c1)C(OC)CC(c1ccc(OC)c(OC)c1)O2 (configuration not stated) | > 100 | > 100 | > 100 | > 100 | > 100 | > 100 | – | > 100 | – | – | – | – | – | – | – | – | – | > 100 | – | –
17 | CC1(C)C(=O)C(C)(C)C1=S | > 100 | – | > 100 | > 100 | > 100 | > 100 | > 100 | > 100 | – | – | – | – | – | – | – | – | – | > 100 | – | –
18 | CC[n+]1c(/C=C/C=C2\N(C)c3ccccc3C2(C)C)sc2ccccc21 | 10.7 | 7.5 | 12.1 | 8.32 | 9.31 | 12.8 | 12.2 | 8.92 | 4.68 | 4.55 | 4.3 | 8.6 | 4 | 4.43 | 4.03 | 4.47 | – | – | 4.39 | 5.16
19 | CN1c2ccccc2N(C(=O)c2ccccc2)C(CC(=O)O)c2cccn21 (configuration not stated) | > 100 | > 100 | > 100 | > 100 | > 100 | > 100 | – | > 100 | – | – | – | – | – | – | – | – | – | > 100 | – | –
